{"source": "patent US20230391772A1", "about": "“METHODS AND COMPOSITIONS FOR TARGETED PROTEIN DEGRADATION” (Ranok Therapeutics (Hangzhou) Co. Ltd., priority 2020, published 2023)", "key": {"HSP90a protein": {"target": "T1, HSP90a protein (Homo sapiens, UniProt P07900)", "T1 construct": "purchased BPS Bioscience 50298", "assay": "HSP90α-binding fluorescent polarization (FP) assay, BODIPY-labeled RNK04010 probe", "details": "FP competition with RNK04010 (BODIPY-labeled), 5 nM, 300 min at 25° C.", "summary_of_the_method": "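Compound dilutions (20 μM to 5.2 nM, 2.5-fold) are combined with 5 nM final labeled probe, and HSP90a N-terminal protein is added last. Plates are shaken briefly and held at 25° C for 120 min (FITC-geldanamycin) or 300 min (BODIPY-RNK04010), then FP is measured.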"}, "[1]": {"system": "NCI-H358 human non-small cell lung cancer", "assay": "NCI-H358 CCK-8 proliferation assay", "type": "cell-based", "details": "NCI-H358 cells, 72 hr", "experimental": "The following cancer cell lines were employed: BT-474 human breast carcinoma (ATCC, #HTB-20); MIA PaCa-2 human pancreatic carcinoma [2 copies KRAS(G12C)](ATCC, #CRL-1420); NCI-H23 human non-small cell lung cancer [1 copy KRAS(G12C)](ATCC, #CRL-5800); NCI-H358 human non-small cell lung cancer [1 copy KRAS(G12C)](ATCC, #CRL-5807); LU65A human lung carcinoma (Pharmaron, Beijing, China). Cell lines were cultured essentially according to ATCC and Pharmaron recommendations.\nCancer Cell Line Proliferation (CCK-8) Assays\n3-fold serial dilutions of each test compound were prepared ranging from 20 μM to 1.02 nM.\n% Inhibition=100−(D−B)/(S−B)*100%. • S: Absorbance of cells treated with DMSO • D: Absorbance of compound-treated cells • B: Absorbance of medium with DMSO without cells"}}, "data": [{"smiles": "C=C(F)C(=O)N1CCN(c2nc(OC[C@@H]3CCN(C(=O)c4ccc(Nc5cc(-n6nc(C(F)(F)F)c7c6CC(C)(C)CC7=O)ccc5C(N)=O)cc4)C3)nc3c2CCN(c2cccc4cccc(Cl)c24)C3)C[C@@H]1CC#N", "note": "[Compound 163, 2-((4-((R)-3-(((7-(8-chloronaphthalen-1-yl)-4-((S)-3-(cyanomethyl)-4-(2-fluoroacryloyl)piperazin-1-yl)-5,6,7,8-tetrahydropyrido[3,4-d]pyrimidin-2-yl)oxy)methyl)pyrrolidine-1-carbonyl)phenyl)amino)-4-(6,6-dimethyl-4-oxo-3-(trifluoromethyl)-4,5,6,7-tetrahydro-1H-indazol-1-yl)benzamide]", "values": [{"measurement": "IC50", "setting": "HSP90a protein", "value": "> 1", "unit": "µM"}, {"measurement": "EC50", "setting": "[1]", "value": "> 1", "unit": "µM"}]}, {"smiles": "C=CC(=O)N1CCN(c2nc(NCCC(=O)N3CCC(Cc4ccc(-n5c(O)nnc5-c5cc(C(C)C)c(O)cc5O)cc4)CC3)nc3c2CCN(c2cc(O)cc4ccccc24)C3)CC1", "note": "[Compound 1, 1-(4-(2-((3-(4-(4-(3-(2,4-dihydroxy-5-isopropylphenyl)-5-hydroxy-4H-1,2,4-triazol-4-yl)benzyl)piperidin-1-yl)-3-oxopropyl)amino)-7-(3-hydroxynaphthalen-1-yl)-5,6,7,8-tetrahydropyrido[3,4-d]pyrimidin-4-yl)piperazin-1-yl)prop-2-en-1-one, trifluoroacetic acid]", "values": [{"measurement": "IC50", "setting": "HSP90a protein", "value": "0.1 to 1", "unit": "µM"}, {"measurement": "EC50", "setting": "[1]", "value": "> 1", "unit": "µM"}]}, {"smiles": "CC(=O)N1CCN(c2nc(NCCC(=O)N3CCC(Cc4ccc(-n5c(O)nnc5-c5cc(C(C)C)c(O)cc5O)cc4)CC3)nc3c2CCN(c2cc(O)cc4ccccc24)C3)CC1", "note": "[Compound 28, 3-((4-(4-acetylpiperazin-1-yl)-7-(3-hydroxynaphthalen-1-yl)-5,6,7,8-tetrahydropyrido[3,4-d]pyrimidin-2-yl)amino)-1-(4-(4-(3-(2,4-dihydroxy-5-isopropylphenyl)-5-hydroxy-4H-1,2,4-triazol-4-yl)benzyl)piperidin-1-yl)propan-1-one, trifluoroacetic acid]", "values": [{"measurement": "IC50", "setting": "HSP90a protein", "value": "0.1 to 1", "unit": "µM"}, {"measurement": "EC50", "setting": "[1]", "value": "> 1", "unit": "µM"}]}, {"smiles": "CCC(=O)N1CCN(c2nc(NCCC(=O)N3CCC(CN4CCN(Cc5ccc(-n6c(O)nnc6-c6ccc(O)cc6O)cc5)CC4)CC3)nc3c2CCN(c2cc(O)cc4ccccc24)C3)CC1", "note": "[Compound 65, 1-(4-((4-(4-(3-(2,4-dihydroxyphenyl)-5-hydroxy-4H-1,2,4-triazol-4-yl)benzyl)piperazin-1-yl)methyl)piperidin-1-yl)-3-((7-(3-hydroxynaphthalen-1-yl)-4-(4-propionylpiperazin-1-yl)-5,6,7,8-tetrahydropyrido[3,4-d]pyrimidin-2-yl)amino)propan-1-one, trifluoroacetic acid]", "values": [{"measurement": "IC50", "setting": "HSP90a protein", "value": "0.1 to 1", "unit": "µM"}, {"measurement": "EC50", "setting": "[1]", "value": "> 1", "unit": "µM"}]}, {"smiles": "C=CC(=O)N1CCN(c2nc(NCCC(=O)N3CCC(Cc4ccc(-n5c(O)nnc5-c5cc(C(C)C)c(O)cc5O)cc4)CC3)nc3c2CCN(c2cccc4ccccc24)C3)C[C@H]1CC#N", "note": "[Compound 84, (R)-2-(1-acryloyl-4-(2-((3-(4-(4-(3-(2,4-dihydroxy-5-isopropylphenyl)-5-hydroxy-4H-1,2,4-triazol-4-yl)benzyl)piperidin-1-yl)-3-oxopropyl)amino)-7-(naphthalen-1-yl)-5,6,7,8-tetrahydropyrido[3,4-d]pyrimidin-4-yl)piperazin-2-yl)acetonitrile, trifluoroacetic acid]", "values": [{"measurement": "IC50", "setting": "HSP90a protein", "value": "0.1 to 1", "unit": "µM"}, {"measurement": "EC50", "setting": "[1]", "value": "0.1 to 1", "unit": "µM"}]}, {"smiles": "CCC(=O)N1CCN(c2nc(NCCC(=O)NCc3ccc(-n4c(O)nnc4-c4cc(CC)c(O)cc4O)cc3C(F)(F)F)nc3c2CCN(c2cc(O)cc4ccccc24)C3)CC1", "note": "[Compound 45, N-(4-(3-(5-ethyl-2,4-dihydroxyphenyl)-5-hydroxy-4H-1,2,4-triazol-4-yl)-2-(trifluoromethyl)benzyl)-3-((7-(3-hydroxynaphthalen-1-yl)-4-(4-propionylpiperazin-1-yl)-5,6,7,8-tetrahydropyrido[3,4-d]pyrimidin-2-yl)amino)propanamide, trifluoroacetic acid]", "values": [{"measurement": "IC50", "setting": "HSP90a protein", "value": "> 1", "unit": "µM"}, {"measurement": "EC50", "setting": "[1]", "value": "> 1", "unit": "µM"}]}, {"smiles": "CCc1cc(-c2nnc(O)n2-c2ccc(CNC(=O)CCNc3nc4c(c(N5CCN(C(C)=O)CC5)n3)CCN(c3cc(O)cc5ccccc35)C4)c(F)c2)c(O)cc1O", "note": "[Compound 43, 3-((4-(4-acetylpiperazin-1-yl)-7-(3-hydroxynaphthalen-1-yl)-5,6,7,8-tetrahydropyrido[3,4-d]pyrimidin-2-yl)amino)-N-(4-(3-(5-ethyl-2,4-dihydroxyphenyl)-5-hydroxy-4H-1,2,4-triazol-4-yl)-2-fluorobenzyl)propanamide]", "values": [{"measurement": "IC50", "setting": "HSP90a protein", "value": "> 1", "unit": "µM"}, {"measurement": "EC50", "setting": "[1]", "value": "> 1", "unit": "µM"}]}, {"smiles": "CCC(=O)N1CCN(c2nc(NCCC(=O)NCCc3ccc(-n4c(O)nnc4-c4cc(C(C)C)c(O)cc4O)cc3)nc3c2CCN(c2cc(O)cc4ccccc24)C3)CC1", "note": "[Compound 74, N-(4-(3-(2,4-dihydroxy-5-isopropylphenyl)-5-hydroxy-4H-1,2,4-triazol-4-yl)phenethyl)-3-((7-(3-hydroxynaphthalen-1-yl)-4-(4-propionylpiperazin-1-yl)-5,6,7,8-tetrahydropyrido[3,4-d]pyrimidin-2-yl)amino)propanamide, trifluoroacetic acid]", "values": [{"measurement": "IC50", "setting": "HSP90a protein", "value": "0.1 to 1", "unit": "µM"}, {"measurement": "EC50", "setting": "[1]", "value": "> 1", "unit": "µM"}]}, {"smiles": "CCC(=O)N1CCN(c2nc(NCCC(=O)NCCOCCOc3ccc(-n4c(O)nnc4-c4cc(C(C)C)c(O)cc4O)cc3)nc3c2CCN(c2cc(O)cc4ccccc24)C3)CC1", "note": "[Compound 73, N-(2-(2-(4-(3-(2,4-dihydroxy-5-isopropylphenyl)-5-hydroxy-4H-1,2,4-triazol-4-yl)phenoxy)ethoxy)ethyl)-3-((7-(3-hydroxynaphthalen-1-yl)-4-(4-propionylpiperazin-1-yl)-5,6,7,8-tetrahydropyrido[3,4-d]pyrimidin-2-yl)amino)propanamide, trifluoroacetic acid]", "values": [{"measurement": "IC50", "setting": "HSP90a protein", "value": "0.1 to 1", "unit": "µM"}, {"measurement": "EC50", "setting": "[1]", "value": "> 1", "unit": "µM"}]}, {"smiles": "CC(=O)N1CCN(c2nc(NCCC(=O)N3CCC(CN4CCC(Cc5ccc(-n6c(O)nnc6-c6cc(C(C)C)c(O)cc6O)cc5)CC4)CC3)nc3c2CCN(c2cc(O)cc4ccccc24)C3)CC1", "note": "[Compound 29, 3-((4-(4-acetylpiperazin-1-yl)-7-(3-hydroxynaphthalen-1-yl)-5,6,7,8-tetrahydropyrido[3,4-d]pyrimidin-2-yl)amino)-1-(4-((4-(4-(3-(2,4-dihydroxy-5-isopropylphenyl)-5-hydroxy-4H-1,2,4-triazol-4-yl)benzyl)piperidin-1-yl)methyl)piperidin-1-yl)propan-1-one, trifluoroacetic acid]", "values": [{"measurement": "IC50", "setting": "HSP90a protein", "value": "0.1 to 1", "unit": "µM"}, {"measurement": "EC50", "setting": "[1]", "value": "> 1", "unit": "µM"}]}, {"smiles": "C=CC(=O)N1CCN(c2nc(NCCC(=O)NCc3ccc(-n4c(O)nnc4-c4cc(CC)c(O)cc4O)cc3)nc3c2CCN(c2cc(O)cc4ccccc24)C3)CC1", "note": "[Compound 40, 3-((4-(4-acryloylpiperazin-1-yl)-7-(3-hydroxynaphthalen-1-yl)-5,6,7,8-tetrahydropyrido[3,4-d]pyrimidin-2-yl)amino)-N-(4-(3-(5-ethyl-2,4-dihydroxyphenyl)-5-hydroxy-4H-1,2,4-triazol-4-yl)benzyl)propanamide, trifluoroacetic acid]", "values": [{"measurement": "IC50", "setting": "HSP90a protein", "value": "0.1 to 1", "unit": "µM"}, {"measurement": "EC50", "setting": "[1]", "value": "> 1", "unit": "µM"}]}, {"smiles": "C=CC(=O)N1CCN(c2nc(NCCC(=O)N3CCN(Cc4ccc(-n5c(O)nnc5-c5cc(C(C)C)c(O)cc5O)cc4)CC3)nc3c2CCN(c2cccc4cccc(Cl)c24)C3)C[C@H]1CC#N", "note": "[Compound 100, (R)-2-(1-acryloyl-4-(7-(8-chloronaphthalen-1-yl)-2-((3-(4-(4-(3-(2,4-dihydroxy-5-isopropylphenyl)-5-hydroxy-4H-1,2,4-triazol-4-yl)benzyl)piperazin-1-yl)-3-oxopropyl)amino)-5,6,7,8-tetrahydropyrido[3,4-d]pyrimidin-4-yl)piperazin-2-yl)acetonitrile, trifluoroacetic acid]", "values": [{"measurement": "IC50", "setting": "HSP90a protein", "value": "0.1 to 1", "unit": "µM"}, {"measurement": "EC50", "setting": "[1]", "value": "> 1", "unit": "µM"}]}, {"smiles": "C=CC(=O)N1CCN(c2nc(NCCC(=O)NCc3ccc(-n4c(O)nnc4-c4cc(C(C)C)c(O)cc4O)cc3F)nc3c2CCN(c2cccc4cccc(Cl)c24)C3)C[C@H]1CC#N", "note": "[Compound 97, (R)-3-((4-(4-acryloyl-3-(cyanomethyl)piperazin-1-yl)-7-(8-chloronaphthalen-1-yl)-5,6,7,8-tetrahydropyrido[3,4-d]pyrimidin-2-yl)amino)-N-(4-(3-(2,4-dihydroxy-5-isopropylphenyl)-5-hydroxy-4H-1,2,4-triazol-4-yl)-2-fluorobenzyl)propanamide, trifluoroacetic acid]", "values": [{"measurement": "IC50", "setting": "HSP90a protein", "value": "0.1 to 1", "unit": "µM"}, {"measurement": "EC50", "setting": "[1]", "value": "> 1", "unit": "µM"}]}, {"smiles": "CCCc1cc(-c2nnc(O)n2-c2ccc(CNC(=O)CCNc3nc4c(c(N5CCN(C(=O)CC)CC5)n3)CCN(c3cc(O)cc5ccccc35)C4)cc2)c(O)cc1O", "note": "[Compound 32, N-(4-(3-(2,4-dihydroxy-5-propylphenyl)-5-hydroxy-4H-1,2,4-triazol-4-yl)benzyl)-3-((7-(3-hydroxynaphthalen-1-yl)-4-(4-propionylpiperazin-1-yl)-5,6,7,8-tetrahydropyrido[3,4-d]pyrimidin-2-yl)amino)propanamide, trifluoroacetic acid]", "values": [{"measurement": "IC50", "setting": "HSP90a protein", "value": "> 1", "unit": "µM"}, {"measurement": "EC50", "setting": "[1]", "value": "> 1", "unit": "µM"}]}, {"smiles": "C=CC(=O)N1CCN(c2nc(NCCC(=O)NCCc3ccc(-n4c(O)nnc4-c4cc(C(C)C)c(O)cc4O)cc3)nc3c2CCN(c2cccc4ccccc24)C3)C[C@H]1CC#N", "note": "[Compound 85, (R)-3-((4-(4-acryloyl-3-(cyanomethyl)piperazin-1-yl)-7-(naphthalen-1-yl)-5,6,7,8-tetrahydropyrido[3,4-d]pyrimidin-2-yl)amino)-N-(4-(3-(2,4-dihydroxy-5-isopropylphenyl)-5-hydroxy-4H-1,2,4-triazol-4-yl)phenethyl)propanamide, trifluoroacetic acid]", "values": [{"measurement": "IC50", "setting": "HSP90a protein", "value": "0.1 to 1", "unit": "µM"}, {"measurement": "EC50", "setting": "[1]", "value": "> 1", "unit": "µM"}]}]}
